Measurements from patent US20090186915A1, “Compositions and methods for treatment of glioblastoma, gliosarcoma, NSCLC, and head and neck cancer” (Unibioscreen S. A., priority 2006, published 2009).

Columns and labels:
[1] = tested on: Hs683; experiment: MTT colorimetric assay, Hs683 cells; type: cell-based; conditions: Homo sapiens, Hs 683, 72 h, 3 days of culturing, mean of six determinations, read-out: IC50 (μM) In Vitro Growth Inhibition
Protocol: The overall growth of human cancer cell lines was determined by means of the calorimetric MTT (3-[4,5-dimethylthiazol-2-yl]-diphenyl tetrazolium bromide; Sigma) assay, as detailed previously.

[2] = tested on: platelets, red and white blood cells; experiment: Compound-induced hematotoxicity and tolerance in mice; type: in vivo; conditions: 20 mg/kg intra-venous, three times a week for five weeks
Protocol: We have determined the compound-induced potential hematotoxicity of the compound produced according to example 2 or example 7 on platelets, red and white blood cells in comparison of the effect of amonafide on platelets, red and white blood cells. The effect of amonafide was evaluated at 10 mg/kg and 20 mg/kg, by the intra-peritoneal administration to mice. The administration schedule was five times a week for three consecutive weeks. The effect of the compound produced according to example 2 or example 7 was evaluated at 20 mg/kg, by the intra-venous administration to mice. The administration schedule was three times a week (on Mondays, Wednesdays and Fridays) for five consecutive weeks. The animals were sacrificed 3 days after the last injection. There were 10 mice per group. FIG. 1 illustrates results of this assay for compound-induced hematotoxicity on platelets.

[3] = tested on: PC-3; experiment: Apoptosis by Annexin V flow cytometry, PC-3; type: cell-based, human
Protocol: (§1) We used flow cytometry (according to the protocol found in Mijatovic et al. Neoplasia 2006) to determine the percentages of PC-3 and DU-145 positive cells for both Annexin V and propidium iodide and we observed that a maximum of 10% only of PC-3 or DU-145 cells underwent apoptotic processes following a treatment with 10 μM of the compound produced according to example 2 or example 7.
(§2) The determination of the percentage of cells undergoing apoptosis was performed using an Annexin V-FITC Apoptosis Detection Kit (Sigma) following the manufacturer's instructions. Each sample was evaluated in triplicate.

[4] = tested on: DU-145; experiment: Apoptosis by Annexin V flow cytometry, DU-145; type: cell-based, human
Protocol: as §1, §2

[5] = tested on: DU-145; experiment: Senescence-associated β-galactosidase staining, DU-145; type: cell-based, human; conditions: 10 μM, 72 hours
Excerpt: Features typical of senescence have been induced by the compound of example 2 in human DU-145 prostate cancer cells. A senescent cell is known to typically show morphological changes, such as a flattened cytoplasm and increased granularity. The induction of senescence-associated β-galactosidase activity is a specific event occurring in cells undergoing senescence, a feature that was observed once more in the current study (according to the protocol found in Dimri et al., A biomarker that identifies senescent human cells in culture and in aging skin in vivo, Proc Natl Acad Sci USA. (1995) 92(20):9363-7), as evidenced in FIG. 4. Moderate doses (nM range) of doxorubicin (ADR) are known to induce senescence in wild-type human cancer cells. We therefore used doxorubicin as a positive control in our experiment.
After the indicated treatments, cells were washed in PBS, fixed for 3 to 5 minutes (at room temperature) in 2% formaldehyde/0.2% glutaraldehyde, washed and incubated at 37° C. […] 1995; 92:9363-9367.], after fixing and staining with X-Gal, the number of cells positive for the SA-β-Gal activity (intense blue staining) was then counted independently by two different individuals (on 400 cells/plate). […]
Human PC-3 and DU-145 prostate cancer cells cultured in 0 or 10 μM UNBS5162 or 20 nM Adriamycin for 72 hours were evaluated by SA-β-Gal staining. […]

[6] = tested on: Mk-CFC; experiment: HALO hematotoxicity assay, mouse Mk-CFC; type: cell-based; conditions: 5 days culture, iATP
Protocol: (§3) Investigation of the hematotoxic potential of UNBS5162 was undertaken by HemoGenix (Colorado Springs, Colo.). The effects of UNBS5162 on stem and progenitor cell populations from murine and human bone marrow were assessed using HALO (Hematopoietic/Hematotoxicity Assay through Luminescence Output) technology. Stem and hematopoietic progenitor cell populations were isolated from mouse and human bone marrow samples, plated at a concentration of 1.0×10^4 cells/well and cultured for 5 and 7 days, respectively, in the presence of growth factors and increasing concentrations of UNBS5162 ranging from 0.5 nM to 50 μM. The proliferative or growth potential of cell populations was determined from intracellular ATP (iATP) concentrations and a luciferin/luciferase bioluminescence signal detection system. All samples were assayed in eight replicates. The results are presented as estimated inhibitory concentration (IC) values.

[7] = tested on: Mk-CFC; experiment: HALO hematotoxicity assay, human Mk-CFC; type: cell-based; conditions: 7 days culture, iATP
Protocol: as §3

CN(C)CCN1C(=O)c2cccc3cc(NC(N)=O)cc(c23)C1=O [UNBS5162, N-{2-[2-(dimethylamino)ethyl]-1,3-dioxo-2,3-dihydro-1H-benzo[de]isoquinolin-5-yl}urea]
IC50 [1]: 8.5 µM
tolerance of chronic administrations [2]: tolerated 15 chronic administrations
cells undergoing apoptotic processes (Annexin V and propidium iodide positive) ([3]; 10 μM): ≤ 10%
induction of real (early) apoptosis ([3]; flow cytometry): does not induce real (early) apoptosis
cells undergoing apoptotic processes (Annexin V and propidium iodide positive) ([4]; 10 μM): ≤ 10%
induction of real (early) apoptosis ([4]; flow cytometry): does not induce real (early) apoptosis
late apoptotic and necrotic events ([4]; flow cytometry): induces late apoptotic and necrotic events
senescence-associated β-galactosidase expression [5]: induced marked expression of SA-β-Gal
senescence-associated β-galactosidase expression ([5]; listed as example 2): induced a similar percentage of senescence-associated β-galactosidase positive staining as 20 nM doxorubicin
IC50 ([6]; 120 h): 5.94 µM
IC90 ([6]; 120 h): 9.61 µM
IC75 [6]: 7.53 µM
IC50 ([7]; 168 h): 4.05 µM
IC90 ([7]; 168 h): 20.1 µM
IC75 [7]: 9.22 µM
